In publication PMC8317135 (Journal of medicinal chemistry, 2021):
“Also recorded” adds a separate entry of the source. Read-outs that look alike come from different tables or passages of the source.

Assays:
[1] = tested on: eosinophils in the bronchoalveolar lavage fluid (BALF); assay: Ovalbumin/Aspergillus protease mouse model of allergic asthma, BALF leukocytes; format: in vivo; conditions: 2 days post-challenge; for eosinophil counts in the BALF / efficacy in asthma model: 20 μmol kg^−1, i.p. prior to allergen challenge
[2] = tested on: porcine liver esterase (PLE); assay: Esterase cleavage of prodrugs by porcine liver esterase; conditions: for percent cleavage at 72 h: pH 7.3 aqueous medium, PLE, 37 °C; for half-life at 1 mM: pig, pH 7.3
hP2Y14R [3] = molecular target: T1, hP2Y14R (Homo sapiens, UniProt Q15391); conditions: for hP2Y14R affinity in words: hP2Y14R-expressing CHO cells, tracer 2
T1 sequence (Q15391 1-338): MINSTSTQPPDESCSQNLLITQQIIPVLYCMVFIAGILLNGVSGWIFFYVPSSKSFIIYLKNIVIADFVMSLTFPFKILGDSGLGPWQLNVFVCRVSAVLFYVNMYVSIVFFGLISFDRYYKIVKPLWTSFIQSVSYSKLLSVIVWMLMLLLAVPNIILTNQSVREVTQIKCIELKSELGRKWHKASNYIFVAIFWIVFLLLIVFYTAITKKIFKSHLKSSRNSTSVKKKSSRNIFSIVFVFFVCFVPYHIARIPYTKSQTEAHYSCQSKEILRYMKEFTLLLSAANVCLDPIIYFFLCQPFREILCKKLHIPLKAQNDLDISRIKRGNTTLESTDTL

DOR (δ-opioid receptor) = DOR (δ-opioid receptor) (Homo sapiens, UniProt P41143); assay: PDSP radioligand binding, DOR
[4] = Lipophilicity based on HPLC retention time; format: physicochemical; conditions: relative to 1a
hP2Y14R [5] = molecular target: T1, hP2Y14R; assay: cell-based; conditions: IC50 / affinity at hP2Y14R (μM), hP2Y14R-expressing CHO cells, tracer 2
[6] = tested on: 46 receptors and channels; assay: PDSP off-target radioligand binding screen; conditions: radioligand binding at 46 receptors and channels
[7] = tested on: CCI-induced mechano-allodynia; conditions: mouse; cited from earlier work
hERG = hERG (Homo sapiens, UniProt Q12809); assay: cell-based
[8] = tested on: CCI-induced mechano-allodynia; assay: Chronic constriction injury; conditions: mouse
in vivo = conditions: male, Wistar, rat
[9] = not given; remark: listed apart in the source
[10] = male Wistar rats, 1.0 mg kg^−1 i.p.
[11] = male Wistar rats, 3.0 mg kg^−1 i.p.
[12] = male Wistar rats, 10 mg kg^−1 i.p.

DOR (δ-opioid receptor), sequence (P41143 whole entry): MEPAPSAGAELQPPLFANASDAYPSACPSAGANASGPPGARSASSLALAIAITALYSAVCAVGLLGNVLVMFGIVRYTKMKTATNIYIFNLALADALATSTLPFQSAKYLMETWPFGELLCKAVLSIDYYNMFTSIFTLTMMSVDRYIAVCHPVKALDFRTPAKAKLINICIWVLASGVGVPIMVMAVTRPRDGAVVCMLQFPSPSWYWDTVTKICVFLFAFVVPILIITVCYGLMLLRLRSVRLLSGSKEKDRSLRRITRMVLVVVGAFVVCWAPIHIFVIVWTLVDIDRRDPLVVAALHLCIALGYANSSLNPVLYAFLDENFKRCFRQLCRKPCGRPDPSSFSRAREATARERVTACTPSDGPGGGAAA
hERG, sequence (Q12809 whole entry): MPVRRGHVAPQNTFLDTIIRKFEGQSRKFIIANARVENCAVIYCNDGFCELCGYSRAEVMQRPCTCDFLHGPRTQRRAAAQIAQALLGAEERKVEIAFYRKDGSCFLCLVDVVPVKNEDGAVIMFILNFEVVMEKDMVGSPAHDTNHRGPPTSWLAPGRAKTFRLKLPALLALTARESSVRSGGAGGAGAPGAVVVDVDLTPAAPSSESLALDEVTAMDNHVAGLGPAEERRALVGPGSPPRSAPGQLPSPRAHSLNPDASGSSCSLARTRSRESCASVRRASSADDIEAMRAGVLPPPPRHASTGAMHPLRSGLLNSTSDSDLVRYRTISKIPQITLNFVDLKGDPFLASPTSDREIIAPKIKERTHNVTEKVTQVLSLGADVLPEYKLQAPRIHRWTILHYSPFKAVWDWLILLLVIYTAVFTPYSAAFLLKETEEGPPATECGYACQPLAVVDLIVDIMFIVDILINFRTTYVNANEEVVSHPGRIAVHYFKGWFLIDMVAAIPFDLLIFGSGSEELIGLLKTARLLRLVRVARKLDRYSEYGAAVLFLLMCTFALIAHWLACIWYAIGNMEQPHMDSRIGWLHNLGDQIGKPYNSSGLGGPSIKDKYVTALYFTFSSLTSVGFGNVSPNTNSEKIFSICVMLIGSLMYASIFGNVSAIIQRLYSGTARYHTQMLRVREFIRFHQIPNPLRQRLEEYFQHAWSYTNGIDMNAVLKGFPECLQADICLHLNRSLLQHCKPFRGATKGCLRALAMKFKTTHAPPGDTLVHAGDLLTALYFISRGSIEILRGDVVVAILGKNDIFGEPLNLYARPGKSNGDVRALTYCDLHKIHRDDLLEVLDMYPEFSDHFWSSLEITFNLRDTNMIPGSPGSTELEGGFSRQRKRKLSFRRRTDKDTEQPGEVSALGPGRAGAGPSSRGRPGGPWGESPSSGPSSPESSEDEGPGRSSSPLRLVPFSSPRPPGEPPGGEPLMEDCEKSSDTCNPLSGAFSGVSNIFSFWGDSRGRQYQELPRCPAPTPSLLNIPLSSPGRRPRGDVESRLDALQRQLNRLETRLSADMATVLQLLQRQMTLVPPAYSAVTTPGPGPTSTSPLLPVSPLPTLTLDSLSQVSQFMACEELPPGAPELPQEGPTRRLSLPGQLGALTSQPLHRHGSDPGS

Structure (SMILES): CC(=O)N1CCC(c2ccc(-c3cc(C(=O)OCC(=O)N(C)C)cc4cc(-c5ccc(C(F)(F)F)cc5)ccc34)cc2)CC1 [Compound 37c, 2-(Dimethylamino)-2-oxoethyl 4-(4-(1-Acetylpiperidin-4-yl)-phenyl)-7-(4-(trifluoromethyl)phenyl)-2-naphthoate]
- eosinophil counts in the BALF / efficacy in asthma model [1]: significantly reduced eosinophils; also recorded: highly efficacious
- percent cleavage at 72 h [2]: < 50%
- half-life at 1 mM [2]: > 1.2 h

Structure (SMILES): O=C(O)c1cc(-c2ccc(CCCCO)cc2)cc(-n2cc(-c3ccc(C(F)(F)F)cc3)nn2)c1 [Compound 21, 4′-(4-Hydroxybutyl)-5-(4-(4-(trifluoromethyl)phenyl)-1H-1,2,3-triazol-1-yl)-[1,1′-biphenyl]-3-carboxylic Acid]
- hP2Y14R affinity in words (hP2Y14R [3]): bound weakly

Structure (SMILES): O=C(O)c1cc(-c2ccc(-c3cc(CO)on3)cc2)cc(-n2cc(-c3ccc(C(F)(F)F)cc3)nn2)c1 [Compound 29, 4′-(5-(Hydroxymethyl)isoxazol-3-yl)-5-(4-(4-(trifluoromethyl)-phenyl)-1H-1,2,3-triazol-1-yl)-[1,1′-biphenyl]-3-carboxylic Acid]
- Ki (DOR (δ-opioid receptor)): 6.9 ± 1.9 µM
- hydrophilicity gain compared to 1a [4]: −1.06 cLogP units
- hP2Y14R affinity in words (hP2Y14R [3]): submicromolar affinity

Structure (SMILES): O=C(O)c1ccc(-c2cc(C(=O)O)cc(-n3cc(-c4ccc(C(F)(F)F)cc4)nn3)c2)cc1 [Compound 13, 5-(4-(4-(Trifluoromethyl)phenyl)-1H-1,2,3-triazol-1-yl)-[1,1′-bi-phenyl]-3,4′-dicarboxylic Acid]
- IC50 (hP2Y14R [5]): ~0.6 µM
- off-target interactions in the standard PDSP screen [6]: did not show any off-target interactions

Structure (SMILES): NCCCc1ccc(-c2cc(C(=O)O)cc(-n3cc(-c4ccc(C(F)(F)F)cc4)nn3)c2)cc1 [Compound 18, 4′-(3-Aminopropyl)-5-(4-(4-(trifluoromethyl)phenyl)-1H-1,2,3-triazol-1-yl)-[1,1′-biphenyl]-3-carboxylic Acid]
- off-target interactions in the standard PDSP screen [6]: did not show any off-target interactions
- hP2Y14R affinity in words (hP2Y14R [3]): submicromolar affinity

Structure (SMILES): O=C(O)c1cc(-c2ccc(NC(=O)C3CCNCC3)cc2)cc(-n2cc(-c3ccc(C(F)(F)F)cc3)nn2)c1 [Compound 11, 4′-(Piperidine-4-carboxamido)-5-(4-(4-(trifluoromethyl)phenyl)-1H-1,2,3-triazol-1-yl)-[1,1′-biphenyl]-3-carboxylic Acid]
- solubility in aqueous medium in words (Aqueous solubility): poorly soluble in aqueous medium

Structure (SMILES): CN(C)C(=O)COC(=O)c1cc(-c2ccc(C3CCNCC3)cc2)cc(-n2cc(-c3ccc(C(F)(F)F)cc3)nn2)c1 [Compound 37a, 2-(Dimethylamino)-2-oxoethyl 4′-(Piperidin-4-yl)-5-(4-(4-(trifluoromethyl)phenyl)-1H-1,2,3-triazol-1-yl)-[1,1′-biphenyl]-3-carboxylate]
- number of off-target interactions in the μM range [6]: 18
- off-target interactions in the standard PDSP screen [6]: promiscuous in off-target binding
- eosinophil counts in the BALF / efficacy in asthma model [1]: lack of in vivo activity
- lymphocyte count in the BALF ([1]; 20 μmol kg^−1, i.p.): trended higher than in a vehicle control

Structure (SMILES): NCC#Cc1ccc(-c2cc(C(=O)O)cc(-n3cc(-c4ccc(C(F)(F)F)cc4)nn3)c2)cc1 [Compound 19, 4′-(3-Aminoprop-1-yn-1-yl)-5-(4-(4-(trifluoromethyl)phenyl)-1H-1,2,3-triazol-1-yl)-[1,1′-biphenyl]-3-carboxylic Acid]
- off-target interactions in the standard PDSP screen [6]: did not show any off-target interactions
- hP2Y14R affinity in words (hP2Y14R [3]): submicromolar affinity

Structure (SMILES): NCCCNC(=O)c1ccc(-c2cc(C(=O)O)cc(-n3cc(-c4ccc(C(F)(F)F)cc4)nn3)c2)cc1 [Compound 14, 4′-((3-Aminopropyl)carbamoyl)-5-(4-(4-(trifluoromethyl)-phenyl)-1H-1,2,3-triazol-1-yl)-[1,1′-biphenyl]-3-carboxylic Acid]
- fold lower affinity than thienyl derivative 4 (hP2Y14R [3]; compared to 4): 3.5 fold
- hP2Y14R affinity in words (hP2Y14R [3]): submicromolar affinity

Structure (SMILES): CC(C)(C)OC(=O)N1CCC(C(=O)Nc2ccc(-c3cc(C(=O)O)cc(-n4cc(-c5ccc(C(F)(F)F)cc5)nn4)c3)cc2)CC1 [Compound 12, 4′-(1-(tert-Butoxycarbonyl)piperidine-4-carboxamido)-5-(4-(4-(trifluoromethyl)phenyl)-1H-1,2,3-triazol-1-yl)-[1,1′-biphenyl]-3-carboxylic Acid]
- fold weaker in binding than the parent amines (hP2Y14R [3]; N-Boc protected forms compared to 11 and 18): > 100 fold

Structure (SMILES): O=C(O)c1cc(-c2ccc(-c3nnn[nH]3)cc2)cc(-n2cc(-c3ccc(C(F)(F)F)cc3)nn2)c1 [Compound 31, 4′-(1H-Tetrazol-5-yl)-5-(4-(4-(trifluoromethyl)phenyl)-1H-1,2,3-triazol-1-yl)-[1,1′-biphenyl]-3-carboxylic Acid]
- hP2Y14R affinity in words (hP2Y14R [3]): submicromolar affinity

Structure (SMILES): O=C(O)c1cc(-c2ccc(C3CCNCC3)cc2)c2ccc(-c3ccc(C(F)(F)F)cc3)cc2c1 [Compound 1a, 4-[4-(4-piperidinyl)phenyl]-7-[4-(trifluoromethyl)phenyl]-2-naphthalene-carboxylic acid]
- effect on chronic pain in the CCI model [7]: effective in reducing chronic pain
- solubility in DMSO at 20 mg mL^−1: could not dissolve
- IC50 (hERG): > 30 µM
- eosinophil counts in the BALF / efficacy in asthma model [1]: reduced

Structure (SMILES): CC(=O)N1CCC(c2ccc(-c3cc(C(=O)O)cc4cc(-c5ccc(C(F)(F)F)cc5)ccc34)cc2)CC1 [Compound 1b, reference compound]
- effect on chronic pain in the CCI model [7]: effective in reducing chronic pain
- eosinophil counts in the BALF / efficacy in asthma model [1]: no significant reduction

Structure (SMILES): CN(C)C(=O)COC(=O)c1cc(-c2ccc(-c3cc(CO)on3)cc2)c2ccc(-c3ccc(C(F)(F)F)cc3)cc2c1 [Compound 37b, 2-(Dimethylamino)-2-oxoethyl 4-(4-(5-(Hydroxymethyl)isoxazol-3-yl)phenyl)-7-(4-(trifluoromethyl)phenyl)-2-naphthoate]
- eosinophil counts in the BALF / efficacy in asthma model [1]: significantly reduced eosinophils; also recorded: highly efficacious
- percent cleavage at 72 h [2]: < 50%
- half-life at 1 mM [2]: > 1.2 h

Structure (SMILES): O=C(O)c1cc(-c2ccc(-c3cc(CO)on3)cc2)c2ccc(-c3ccc(C(F)(F)F)cc3)cc2c1 [Compound 32, 4-(4-(5-(Hydroxymethyl)isoxazol-3-yl)phenyl)-7-(4-(trifluoromethyl)phenyl)-2-naphthoic Acid]
- maximal reversal of CCI-induced mechano-allodynia ([8]; 10 μmol kg^−1 (4.9 mg kg^−1), i.p., 1 h post-injection): 71.0 ± 17.4%
- side effects ([8]; 10 μmol kg^−1, i.p.): No side effects were evident
- protection against CCI-induced mechano-allodynia at 3 or 5 h ([8]; 10 μmol kg^−1, i.p., 3 or 5 h post-injection): not statistically significant
- hydrophilicity gain compared to 1a [4]: −0.80 cLogP units
- AUC(0-t) at 24 h (in vivo; ip, 1 mg/kg): 650 ng·h/mL
- Cmax at 24 h (in vivo; ip, 1 mg/kg): 88.4 ng/mL
- half-life (in vivo; ip, 1 mg/kg): 7.23 h
- AUC(0-inf) at 24 h (in vivo; ip, 3 mg/kg): 2120 ng·h/mL
- AUC(0-t) at 24 h (in vivo; ip, 3 mg/kg): 2060 ng·h/mL
- Cmax at 24 h (in vivo; ip, 3 mg/kg): 315 ng/mL
- half-life at 24 h (in vivo; ip, 3 mg/kg): 4.68 h
- AUC(0-inf) at 24 h (in vivo; ip, 10 mg/kg): 4920 ng·h/mL
- AUC(0-t) at 24 h (in vivo; ip, 10 mg/kg): 4900 ng·h/mL
- Cmax at 24 h (in vivo; ip, 10 mg/kg): 786 ng/mL
- half-life at 24 h (in vivo; ip, 10 mg/kg): 2.98 h
- AUC(0-inf) at 24 h (in vivo; iv, 0.5 mg/kg): 238 ng·h/mL
- AUC(0-t) at 24 h (in vivo; iv, 0.5 mg/kg): 234 ng·h/mL
- Cmax at 24 h (in vivo; iv, 0.5 mg/kg): 359 ng/mL
- Vd at 24 h (in vivo; iv, 0.5 mg/kg): 2.09 L/kg
- clearance at 24 h (in vivo; iv, 0.5 mg/kg): 35.2 mL/min/kg
- half-life at 24 h (in vivo; iv, 0.5 mg/kg): 0.689 h
- eosinophil counts in the BALF / efficacy in asthma model [1]: no significant reduction
- clinical signs ([9]; all rat groups at all time points (up to 24 h)): normal
- Kel (1 h^−1) ([9]; male Wistar rats, 0.5 mg kg^−1 i.v.): 1.01 1 h^−1
- Cl [9, 10]: 23.83 mL/min/kg
- Kel (1 h^−1) [9, 10]: 0.096 1 h^−1
- Vd (mL kg^−1) [9, 10]: 14,900 mL kg^−1
- Cl [9, 11]: 23.67 mL/min/kg
- Kel (1 h^−1) [9, 11]: 0.148 1 h^−1
- Vd [9, 11]: 9.57 L/kg
- Cl [9, 12]: 33.83 mL/min/kg
- Kel (1 h^−1) [9, 12]: 0.233 1 h^−1
- Vd [9, 12]: 8.73 L/kg
- peak concentration ([9]; rat, 10 mg kg^−1, i.p., 4 h post-injection): 1.61 µM

Structure (SMILES): CC(=O)Nc1ccc(-c2cc(C(=O)O)cc(-n3cc(-c4ccc(C(F)(F)F)cc4)nn3)c2)cc1 [Compound 8, 4′-Acetamido-5-(4-(4-(trifluoromethyl)phenyl)-1H-1,2,3-triazol-1-yl)-[1,1′-biphenyl]-3-carboxylic Acid]
- hP2Y14R affinity in words (hP2Y14R [3]): submicromolar affinity
